EP0454444A1, “Glutarimide derivatives and herbicides” (NISSAN CHEMICAL INDUSTRIES LTD., priority 1990, dated 1991)

Key:
Assay in all cases: Herbicidal effect test by soil treatment
Type in all cases: in vivo
[1] = tested on: annual sedge (Cyperus microiria); conditions: three weeks after spraying
Description: (§1) In a plastic box of 15 cm length, 22 cm width and 6 cm depth, there was placed a sterilized dilvial soil, and seeds of barnyardgrass (Echinochloa crusgalli), large crabgrass (Digitaria adscendens), annual sedge (Cyperus microiria), black nightshade (Solanum nigrum L.), hairly galinosoga (Galinsoga ciliat), rorippa ssp. (Rorippa atrovirens), rice (Oryza sativa), corn (Zea mays), wheat (Triticum aestivum), soybean (Glysine max) and cotton (Gossypium herbaceum) were sown mixedly. After covering soil to about 1 cm over the seeds, herbicides were sprayed evenly on the soil surface to predetermined proportions of the active ingredient In spraying, the wettable powder, emulsifiable concentrate, dry flowable or flowable in the above formulation examples were diluted with water and sprayed over the entire surface by means of a small sprayer. Three weeks after spraying, the herbicidal effect on crop plants including rice, corn, wheat, soybean, cotton and various kinds of weeds were examined according to the judgement criteria shown below. Judgement criteria
(§2) The above growth control rates are determined by measuring the top fresh weights of the treated plants and those of the non-treated plants, and culculated from the following formula: [formula]

[2] = tested on: barnyardgrass (Echinochloa crusgalli); conditions: three weeks after spraying
Description: as §1, §2

[3] = tested on: black nightshade (Solanum nigrum L.); conditions: three weeks after spraying
Description: as §1, §2

corn (Zea mays) = conditions: crop plant, three weeks after spraying
Description: as §1, §2

[4] = tested on: cotton (Gossypium herbaceum); conditions: crop plant, three weeks after spraying
Description: as §1, §2

[5] = tested on: hairly galinosoga (Galinsoga ciliat); conditions: three weeks after spraying
Description: as §1, §2

[6] = tested on: large crabgrass (Digitaria adscendens); conditions: three weeks after spraying
Description: as §1, §2

rice (Oryza sativa) = conditions: crop plant, three weeks after spraying
Description: as §1, §2

[7] = tested on: rorippa ssp. (Rorippa atrovirens); conditions: three weeks after spraying
Description: as §1, §2

soybean (Glysine max) = conditions: crop plant, three weeks after spraying
Description: as §1, §2

[8] = tested on: wheat (Triticum aestivum); conditions: crop plant, three weeks after spraying
Description: as §1, §2

O=C1COc2cc(F)c(N3C(=O)CC(C(F)(F)F)CC3=O)cc2N1Cc1ccccc1 [1-27]
herbicidal effect, K (Cyperus microiria) ([1]; application amount 0.4 g/a): 5 (Growth control,rates of more than 90% (almost completely withered))
herbicidal effect, K (Cyperus microiria) ([1]; application amount 0.8 g/a): 5 (Growth control,rates of more than 90% (almost completely withered))
herbicidal effect, K (Cyperus microiria) ([1]; application amount 1.6 g/a): 5 (Growth control,rates of more than 90% (almost completely withered))
herbicidal effect, N (Echinochloa crusgalli) ([2]; application amount 0.4 g/a): 5 (Growth control,rates of more than 90% (almost completely withered))
herbicidal effect, N (Echinochloa crusgalli) ([2]; application amount 0.8 g/a): 5 (Growth control,rates of more than 90% (almost completely withered))
herbicidal effect, N (Echinochloa crusgalli) ([2]; application amount 1.6 g/a): 5 (Growth control,rates of more than 90% (almost completely withered))
herbicidal effect, H (Solanum nigrum L.) ([3]; application amount 0.4 g/a): 5 (Growth control,rates of more than 90% (almost completely withered))
herbicidal effect, H (Solanum nigrum L.) ([3]; application amount 0.8 g/a): 5 (Growth control,rates of more than 90% (almost completely withered))
herbicidal effect, H (Solanum nigrum L.) ([3]; application amount 1.6 g/a): 5 (Growth control,rates of more than 90% (almost completely withered))
herbicidal effect, T (Zea mays) (corn (Zea mays); application amount 0.4 g/a): 0 (Growth control rates of less than 5% (substantially no effect))
herbicidal effect, T (Zea mays) (corn (Zea mays); application amount 0.8 g/a): 1 (Growth control rates of 5 to 20%)
herbicidal effect, T (Zea mays) (corn (Zea mays); application amount 1.6 g/a): 4 (Growth control rates of 70 to 90%)
herbicidal effect, C (Gossypium herbaceum) ([4]; application amount 0.4 g/a): 0 (Growth control rates of less than 5% (substantially no effect))
herbicidal effect, C (Gossypium herbaceum) ([4]; application amount 0.8 g/a): 1 (Growth control rates of 5 to 20%)
herbicidal effect, C (Gossypium herbaceum) ([4]; application amount 1.6 g/a): 2 (Growth control rates of 20 to 40%)
herbicidal effect, D (Galinsoga ciliat) ([5]; application amount 0.4 g/a): 5 (Growth control,rates of more than 90% (almost completely withered))
herbicidal effect, D (Galinsoga ciliat) ([5]; application amount 0.8 g/a): 5 (Growth control,rates of more than 90% (almost completely withered))
herbicidal effect, D (Galinsoga ciliat) ([5]; application amount 1.6 g/a): 5 (Growth control,rates of more than 90% (almost completely withered))
herbicidal effect, M (Digitaria adscendens) ([6]; application amount 0.4 g/a): 5 (Growth control,rates of more than 90% (almost completely withered))
herbicidal effect, M (Digitaria adscendens) ([6]; application amount 0.8 g/a): 5 (Growth control,rates of more than 90% (almost completely withered))
herbicidal effect, M (Digitaria adscendens) ([6]; application amount 1.6 g/a): 5 (Growth control,rates of more than 90% (almost completely withered))
herbicidal effect, R (Oryza sativa) (rice (Oryza sativa); application amount 0.4 g/a): 2 (Growth control rates of 20 to 40%)
herbicidal effect, R (Oryza sativa) (rice (Oryza sativa); application amount 0.8 g/a): 3 (Growth control rates of 40 to 70%)
herbicidal effect, R (Oryza sativa) (rice (Oryza sativa); application amount 1.6 g/a): 4 (Growth control rates of 70 to 90%)
herbicidal effect, I (Rorippa indica) ([7]; application amount 0.4 g/a): 5 (Growth control,rates of more than 90% (almost completely withered))
herbicidal effect, I (Rorippa indica) ([7]; application amount 0.8 g/a): 5 (Growth control,rates of more than 90% (almost completely withered))
herbicidal effect, I (Rorippa indica) ([7]; application amount 1.6 g/a): 5 (Growth control,rates of more than 90% (almost completely withered))
herbicidal effect, S (Glysine max) (soybean (Glysine max); application amount 0.4 g/a): 0 (Growth control rates of less than 5% (substantially no effect))
herbicidal effect, S (Glysine max) (soybean (Glysine max); application amount 0.8 g/a): 0 (Growth control rates of less than 5% (substantially no effect))
herbicidal effect, S (Glysine max) (soybean (Glysine max); application amount 1.6 g/a): 1 (Growth control rates of 5 to 20%)
herbicidal effect, W (Triticum vulgare) ([8]; application amount 0.4 g/a): 2 (Growth control rates of 20 to 40%)
herbicidal effect, W (Triticum vulgare) ([8]; application amount 0.8 g/a): 4 (Growth control rates of 70 to 90%)
herbicidal effect, W (Triticum vulgare) ([8]; application amount 1.6 g/a): 5 (Growth control,rates of more than 90% (almost completely withered))

CCOC(=O)Nc1cc(N2C(=O)CC(C(F)(F)F)CC2=O)c(F)cc1Cl [1-35]
herbicidal effect, K (Cyperus microiria) ([1]; application amount 1.6 g/a): 5 (Growth control,rates of more than 90% (almost completely withered))
herbicidal effect, N (Echinochloa crusgalli) ([2]; application amount 1.6 g/a): 4 (Growth control rates of 70 to 90%)
herbicidal effect, H (Solanum nigrum L.) ([3]; application amount 1.6 g/a): 5 (Growth control,rates of more than 90% (almost completely withered))
herbicidal effect, T (Zea mays) (corn (Zea mays); application amount 1.6 g/a): 0 (Growth control rates of less than 5% (substantially no effect))
herbicidal effect, C (Gossypium herbaceum) ([4]; application amount 1.6 g/a): 0 (Growth control rates of less than 5% (substantially no effect))
herbicidal effect, D (Galinsoga ciliat) ([5]; application amount 1.6 g/a): 5 (Growth control,rates of more than 90% (almost completely withered))
herbicidal effect, M (Digitaria adscendens) ([6]; application amount 1.6 g/a): 5 (Growth control,rates of more than 90% (almost completely withered))
herbicidal effect, R (Oryza sativa) (rice (Oryza sativa); application amount 1.6 g/a): 0 (Growth control rates of less than 5% (substantially no effect))
herbicidal effect, I (Rorippa indica) ([7]; application amount 1.6 g/a): 5 (Growth control,rates of more than 90% (almost completely withered))
herbicidal effect, S (Glysine max) (soybean (Glysine max); application amount 1.6 g/a): 0 (Growth control rates of less than 5% (substantially no effect))
herbicidal effect, W (Triticum vulgare) ([8]; application amount 1.6 g/a): 1 (Growth control rates of 5 to 20%)

O=C1COc2cc(F)c(N3C(=O)CC(C(F)(F)F)CC3=O)cc2N1 [1-25]
herbicidal effect, K (Cyperus microiria) ([1]; application amount 1.6 g/a): 5 (Growth control,rates of more than 90% (almost completely withered))
herbicidal effect, N (Echinochloa crusgalli) ([2]; application amount 1.6 g/a): 5 (Growth control,rates of more than 90% (almost completely withered))
herbicidal effect, H (Solanum nigrum L.) ([3]; application amount 1.6 g/a): 5 (Growth control,rates of more than 90% (almost completely withered))
herbicidal effect, T (Zea mays) (corn (Zea mays); application amount 1.6 g/a): 0 (Growth control rates of less than 5% (substantially no effect))
herbicidal effect, C (Gossypium herbaceum) ([4]; application amount 1.6 g/a): 1 (Growth control rates of 5 to 20%)
herbicidal effect, D (Galinsoga ciliat) ([5]; application amount 1.6 g/a): 5 (Growth control,rates of more than 90% (almost completely withered))
herbicidal effect, M (Digitaria adscendens) ([6]; application amount 1.6 g/a): 5 (Growth control,rates of more than 90% (almost completely withered))
herbicidal effect, R (Oryza sativa) (rice (Oryza sativa); application amount 1.6 g/a): 1 (Growth control rates of 5 to 20%)
herbicidal effect, I (Rorippa indica) ([7]; application amount 1.6 g/a): 5 (Growth control,rates of more than 90% (almost completely withered))
herbicidal effect, S (Glysine max) (soybean (Glysine max); application amount 1.6 g/a): 0 (Growth control rates of less than 5% (substantially no effect))
herbicidal effect, W (Triticum vulgare) ([8]; application amount 1.6 g/a): 0 (Growth control rates of less than 5% (substantially no effect))

CC1CC(=O)N(c2cc3c(cc2F)OCC(=O)N3)C(=O)C1 [1-22]
herbicidal effect, K (Cyperus microiria) ([1]; application amount 1.6 g/a): 5 (Growth control,rates of more than 90% (almost completely withered))
herbicidal effect, N (Echinochloa crusgalli) ([2]; application amount 1.6 g/a): 5 (Growth control,rates of more than 90% (almost completely withered))
herbicidal effect, H (Solanum nigrum L.) ([3]; application amount 1.6 g/a): 5 (Growth control,rates of more than 90% (almost completely withered))
herbicidal effect, T (Zea mays) (corn (Zea mays); application amount 1.6 g/a): 0 (Growth control rates of less than 5% (substantially no effect))
herbicidal effect, C (Gossypium herbaceum) ([4]; application amount 1.6 g/a): 0 (Growth control rates of less than 5% (substantially no effect))
herbicidal effect, D (Galinsoga ciliat) ([5]; application amount 1.6 g/a): 5 (Growth control,rates of more than 90% (almost completely withered))
herbicidal effect, M (Digitaria adscendens) ([6]; application amount 1.6 g/a): 5 (Growth control,rates of more than 90% (almost completely withered))
herbicidal effect, R (Oryza sativa) (rice (Oryza sativa); application amount 1.6 g/a): 0 (Growth control rates of less than 5% (substantially no effect))
herbicidal effect, I (Rorippa indica) ([7]; application amount 1.6 g/a): 5 (Growth control,rates of more than 90% (almost completely withered))
herbicidal effect, S (Glysine max) (soybean (Glysine max); application amount 1.6 g/a): 0 (Growth control rates of less than 5% (substantially no effect))
herbicidal effect, W (Triticum vulgare) ([8]; application amount 1.6 g/a): 0 (Growth control rates of less than 5% (substantially no effect))
